Laboratory results: patent US20240285552A1 (priority 2020, published 2024)
Where a name gives a salt, the structure may show the parent alone.

Key:
[1] = molecular target: T1, recombinant human ACE2 (rhACE2) (Homo sapiens, UniProt Q9BYF1); experiment: ACE2 exopeptidase inhibitor screening assay (fluorogenic substrate), AMB and BHH; type: biochemical
T1 construct: purchased BPS Bioscience 79923
Procedure: ACE2 Inhibitor Screening Assay. An ACE2 exopeptidase Inhibitor screening assay kit with the fluorogenic substrate (Catalogue #79923) was purchased from BPS Bioscience (San Diego, CA) and modified to measure the exopeptidase activity of ACE2 in the presence and absence of inhibitors (BPSBioscience, 2022). Following the manufacturer's directions, the fluorescence assay was carried out in a 96-well black flat-bottom plate with a final reaction volume of 50 μL. 50 mM stock solutions of BHH and AMB in 100% DMSO were prepared. Compounds were serially diluted in DMSO as follows: 500, 250, 100, 50, 10, 1, 0.1 μM. All experiments were done in triplicates and repeated twice. A positive control of enzyme treated with vehicle alone (2 percent DMSO) and a blank control with no enzyme were included on each plate.
Each reaction had 24 μL of purified recombinant human ACE2 protein (0.42 ng/L) in ACE2 buffer, 1 μL of the compound at different concentrations, and 25 μL ACE2 fluorogenic substrate. The final volume of the reaction was 50 μL. The reaction mixtures were incubated for 1 hr at room temperature (22° C.) and protected from light. After that, the fluorescence intensities (λExcitation=535 nm, λEmission=595 nm) were measured using a Spectramax iD3 multimode plate reader. The background hydrolysis was subtracted, and the data were fitted to a four-parameter logistic (variable slope) equation using GraphPad prism software 9.1.

ACE1 = experiment: Western blotting, ACE1 expression in A549 cells; type: cell-based, human; conditions: 50 μm, 24 hrs and 48 hrs
Procedure: Western blotting. A549 “Lung” cells (RRID:CVCL_COQ5) were harvested in a radioimmuno precipitation assay (RIPA) buffer (Tris 10 mM pH 7.4, containing 140 mM NaCl, 1 mM EDTA, 1 mM NaF, 0.10% SDS, 0.50% sodium deoxycholate 0.1% NP-40, 1% Triton X-100) in the presence of protease inhibitors (Thermo Fisher) at 24 hrs. and 48 hrs. Protein concentration was determined by was determined using bicinchoninic acid with bovine serum albumin as a standard (Thermo Fisher). Equal amounts of protein were loaded and separated by SDS-PAGE using 10% pre-casted gels (Biorad). Proteins were electroblotted onto nitrocellulose membranes (Bio-Rad). The blots were blocked using 5% (w/v) milk in Tris-buffered saline containing 0.5% (v/v) Tween-20. The membranes were then incubated with different antibodies. Antibodies directed against ACE1 (ab28311) and ACE2 (ab108209) were used and the GAPDH antibody was used as loading control for cell lysates. Primary and secondary antibodies were diluted in Tris-buffered saline containing (0.5% v/v) Tween-20 (TBS-T) supplemented with 5% milk. The bands were visualized by incubating the blots with enhanced chemiluminescence reagent (ECL, Biorad) and visualized using chemidoc. Band intensities were quantified by using imagelab software Biorad.

SARS-CoV-2 USA_WA1/2020 = conditions: hamster

T1 sequence (Q9BYF1 18-805): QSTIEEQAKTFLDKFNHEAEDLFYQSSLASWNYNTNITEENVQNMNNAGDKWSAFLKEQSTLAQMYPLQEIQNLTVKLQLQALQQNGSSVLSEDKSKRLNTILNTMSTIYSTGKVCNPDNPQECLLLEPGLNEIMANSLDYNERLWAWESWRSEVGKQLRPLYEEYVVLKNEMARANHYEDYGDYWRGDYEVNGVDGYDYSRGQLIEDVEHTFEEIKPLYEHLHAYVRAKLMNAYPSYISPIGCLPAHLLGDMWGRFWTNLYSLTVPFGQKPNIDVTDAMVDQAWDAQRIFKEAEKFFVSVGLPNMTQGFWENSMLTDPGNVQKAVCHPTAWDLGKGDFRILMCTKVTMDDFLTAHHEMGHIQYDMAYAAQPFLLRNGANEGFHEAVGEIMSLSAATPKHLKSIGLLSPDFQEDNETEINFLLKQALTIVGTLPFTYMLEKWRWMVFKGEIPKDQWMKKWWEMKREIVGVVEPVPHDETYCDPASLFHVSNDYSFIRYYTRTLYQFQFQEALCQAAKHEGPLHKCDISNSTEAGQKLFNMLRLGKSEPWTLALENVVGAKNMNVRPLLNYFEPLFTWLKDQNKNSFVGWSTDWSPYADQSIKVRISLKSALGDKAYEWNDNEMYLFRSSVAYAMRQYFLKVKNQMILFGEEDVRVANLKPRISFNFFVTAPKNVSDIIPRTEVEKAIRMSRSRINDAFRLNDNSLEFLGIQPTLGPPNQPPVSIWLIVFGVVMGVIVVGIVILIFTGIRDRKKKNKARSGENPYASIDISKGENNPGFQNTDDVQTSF

Compound: Nc1c(Br)cc(Br)cc1CN[C@H]1CC[C@H](O)CC1 [AMB, 4-[(2-amino-3,5-dibromophenyl)methylamino]cyclohexan-1-ol; hydrochloride]
- ACE2 Exopeptidase Activity: Percent Activity ([1]; 0.1 uM): 148.7%
- inhibition at 0.1 µM ([1]; 0.1 uM, read-out: ACE2 Exopeptidase Activity: Percent Inhibition): -48.7%
- ACE2 Exopeptidase Activity: Percent Activity ([1]; 1 uM): 152.3%
- inhibition at 1 µM ([1]; 1 uM, read-out: ACE2 Exopeptidase Activity: Percent Inhibition): -52.3%
- ACE2 Exopeptidase Activity: Percent Activity ([1]; 10 uM): 159.9%
- inhibition at 10 µM ([1]; 10 uM, read-out: ACE2 Exopeptidase Activity: Percent Inhibition): -59.9%
- ACE2 Exopeptidase Activity: Percent Activity ([1]; 50 uM): 157.1%
- inhibition at 50 µM ([1]; 50 uM, read-out: ACE2 Exopeptidase Activity: Percent Inhibition): -57.1%
- ACE2 Exopeptidase Activity: Percent Activity ([1]; 100 uM): 156.9%
- inhibition at 100 µM ([1]; 100 uM, read-out: ACE2 Exopeptidase Activity: Percent Inhibition): -56.9%
- ACE2 Exopeptidase Activity: Percent Activity ([1]; 250 uM): 144.7%
- inhibition at 250 µM ([1]; 250 uM, read-out: ACE2 Exopeptidase Activity: Percent Inhibition): -44.7%
- ACE2 Exopeptidase Activity: Percent Activity ([1]; 500 uM): 141.0%
- inhibition at 500 µM ([1]; 500 uM, read-out: ACE2 Exopeptidase Activity: Percent Inhibition): -41%
- effect on exopeptidase activity of rhACE2 ([1]; tested 0.1 to 500 μM): did not inhibit
- change of ACE1 expression (ACE1): no changes
- Overall Gmean Days 1-4, E sgRNA, rectal swabs (SARS-CoV-2 USA_WA1/2020): 4.21 copies/swab
- Overall Gmean Days 1-4 higher than Group 3, E sgRNA, rectal swabs (SARS-CoV-2 USA_WA1/2020): 3 fold
- Peak viral load versus Group 3, N2 gRNA, rectal swabs (SARS-CoV-2 USA_WA1/2020): similar
- Peak viral replication load higher than Group 3, E sgRNA, rectal swabs (SARS-CoV-2 USA_WA1/2020): 6 fold
- SARS-CoV-2 genome load, N2 gRNA, lungs (SARS-CoV-2 USA_WA1/2020; Day 4): 4.03E+09 copies/gram
- SARS-CoV-2 genome load, N2 gRNA, trachea (SARS-CoV-2 USA_WA1/2020; Day 4): 6.24E+08 copies/gram
- active replication load higher than Group 3, E sgRNA, lungs (SARS-CoV-2 USA_WA1/2020; Day 4): 2 fold
- active replication load, E sgRNA, lungs (SARS-CoV-2 USA_WA1/2020; Day 4): 2.78E+07 copies/gram
- active replication load, E sgRNA, nasal turbinate (SARS-CoV-2 USA_WA1/2020; Day 4): 1.09E+08 copies/gram
- active replication load, E sgRNA, trachea (SARS-CoV-2 USA_WA1/2020; Day 4): 1.11E+06 copies/gram
- genome load higher than Group 3, N2 gRNA, lungs (SARS-CoV-2 USA_WA1/2020; Day 4): 2 fold
- replication load higher than Group 3, E sgRNA, trachea (SARS-CoV-2 USA_WA1/2020; Day 4): similar
- viral load higher than Group 3, N2 gRNA, trachea (SARS-CoV-2 USA_WA1/2020; Day 4): similar
- serum IL-6 levels versus Group 3 (SARS-CoV-2 USA_WA1/2020; Day 4, ELISA, P<0.05): significantly lower
- serum TNF-α versus Group 3 (SARS-CoV-2 USA_WA1/2020; Day −1, Day 2 (P<0.05), Day 4 (P<0.001)): significantly low
- serum IL-10 levels between groups (SARS-CoV-2 USA_WA1/2020; Days −1, 2, 4): No significance difference
- tolerability of administered doses (SARS-CoV-2 USA_WA1/2020; in vivo): tolerated the administered doses well
- incidence and severity of microscopic lesions versus vehicle control (SARS-CoV-2 USA_WA1/2020; lung histopathology): similar
- lung viral load by TCID50 assay versus vehicle control (SARS-CoV-2 USA_WA1/2020; lung samples Day 4): No difference
- SARS-CoV-2 genome load, N2 gRNA, nasal turbinate (SARS-CoV-2 USA_WA1/2020; necropsy Day 4): 3.57E+10 copies/gram
- gross lesions in the lung (SARS-CoV-2 USA_WA1/2020; necropsy Day 4): reduced gross lesions in the lung
- Overall Gmean Days 1-4, E sgRNA, pharyngeal swabs (SARS-CoV-2 USA_WA1/2020; AMB 500, BHH 200 mg/kg/day PO): 1.89E+04 copies/swab
